Values quoted from earlier work in publication PMC6344942 (SLAS discovery : advancing life sciences R & D, 2017).
Where two headings read alike, the source gives them in different places.

Target: Ubc9 (Homo sapiens, UniProt P63279)
Sequence (P63279 whole entry): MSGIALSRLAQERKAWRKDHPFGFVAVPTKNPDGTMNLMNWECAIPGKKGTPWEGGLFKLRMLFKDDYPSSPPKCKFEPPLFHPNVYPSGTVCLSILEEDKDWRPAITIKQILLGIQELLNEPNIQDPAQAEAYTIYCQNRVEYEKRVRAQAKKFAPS

Row | IC50 (prevents transfer of SUMO from Ubc9~SUMO thioester to substrate) | SMILES | IC50 (Ubc9 inhibitor)
1 | 6 µM | O=c1cc(-c2ccc(O)c(O)c2O)oc2ccccc12 [Compound 2-D08, 2-D08] | 
2 |  | COC(=CC(=O)O)C1c2cc3ccc(-c4ccc5cc6c(c(O)c5c4O)C(=O)CC(C)(O)C6C(=CC(=O)O)OC)c(O)c3c(O)c2C(=O)CC1(C)O (centres unmarked) [spectomycin B1] | 4.4 µM
